Assay results taken from patent US9388126B2, “Sigma receptor ligands and methods of modulating cellular protein homeostasis using same” (Drexel University, priority 2012, dated 2016).

Columns and labels:
Format in all cases: cell-based, human
PC3 and DU145 PCa cells = experiment: UPR induction in prostate cancer cell lines; settings: preliminary experiments
Description: FIG. 15 is an image of an immunoblot illustrating induction of UPR in a prostate cancer cell line. […] P-IRE1α indicates phosphorylated IRE1α. Similar results were obtained with DU145 prostate cancer cells.
This might be due to an accumulation of ubiquitylated proteins or due to an increase in ubiquitin ligase activity. Progression of the ER stress response could be monitored by a set of markers, many of which have been directly linked to the UPR. The most extensively investigated sensors that initiate the UPR are IRE1α, PERK, and ATF6, which transduce signals to a cascade of effectors. Many of these UPR 4 effectors function as transcription factors that induce the synthesis of ER chaperones, such as GRP78/BiP and GRP94, involved in maintaining protein homeostasis.

[1] = system: PC3 prostate adenocarcinoma cells; experiment: Ubiquitin (P4D1) immunoblot, prostate adenocarcinoma cells; settings: 10 μM
PC3 cells = experiment: PC3 cell death by trypan blue exclusion; settings: 5 μM
Experimental: FIG. 1, comprising FIGS. 1A-1B, illustrates prostate adenocarcinoma cell death induced by Sigma1 antagonists. […] Quantitated cell death was presented as the percentage of trypan blue positive cells per drug treated population. Salient cell death occurred following ˜24-48 hours of treatment with the Sigma antagonist.
Cell death was evaluated by trypan blue exclusion assay, as well as cleaved caspase 3 (Asp 175) and cleaved PARP (Asp 214) immunoblot. Trypan blue exclusion and propidium iodide staining were used to quantify general cell death and the presence of apoptotic cell death was confirmed by immunoblot. The percentage of dead cells in a given population was determined by quantifying the number of trypan blue positive (dead) cells and dividing by the total number of trypan blue positive and negative cells.

[2] = system: MDA-MB-468 breast adenocarcinoma cells; experiment: LC3 lipidation (LC3II) immunoblot; settings: 10 μM, 24 hours
Experimental: Cells were lysed and proteins extracted in a modified RIPA buffer (25 mM Tris-HCl pH 7.6, 150 mM NaCl, 1% NP-40, 1% sodium deoxycholate and 0.1% SDS) supplemented with 10% glycerol (volume/volume), complete protease inhibitor cocktail (Roche), and Halt phosphatase inhibitor cocktail (Pierce). Approximately 10-20 μg of detergent soluble protein were resolved on NOVEX 10-20% polyacrylamide Tris-glycine gels (InVitrogen). Immunoblots were performed in a 20 mM Tris-buffered 137 mM saline solution (pH 7.6) containing 0.1% Tween-20 (polyoxyethylene (20) sorbitan monolaurate) and 5% (weight/volume) blotting grade non-fat dry milk (BioRad). The Lumigen PS-3 enhanced chemiluminescence kit (GE Healthcare) was used to reveal immunoblotted proteins.
Initially, an established immunoblot-based assay to detect microtubule associated protein light chain 3 (LC3) lipidation was used to test for the activation of autophagy. […] Since transient transfections can produce spurious GFP-LC3 aggregates, stable GFP-LC3 transfected populations of MDA-MB-468 (GFP-LC3) were generated. These cells were treated for 24 hours with increasing concentrations of Sigma receptor antagonists and agonists, and were compared to basal and DMSO treated controls (FIGS. 4B & 4C).

[3] = system: PC3 prostate cancer cells; experiment: LC3BII immunoblot, prostate cancer cells; settings: 10 μM, 24 hours
Experimental: FIG. 16, comprising FIGS. 16A-16B, illustrates Sigma antagonist associated autophagy. FIG. 16A illustrates representative images of the translocation of GFP-tagged LC3 (LC3-GFP) into autophagosomes in a control (DMSO) group and a haloperidol-treated group (10 μM, antagonist). FIG. 16B is an image of a gel illustrating increased levels of the microtubule-associated protein light chain 3BII isoform (CL3BII), which is a broadly used indicator of activated autophagy.
Sigma antagonist-induced ER stress led to the activation of autophagy in several tumor cell lines, including PC3 prostate cancer cells (FIG. 16). In preliminary experiments, an immunoblot assay was performed to detect the formation of the lipid-conjugated form of microtubule associated protein light chain 3 (LC3II), a widely used marker of autophagosome formation (FIG. 16).

[4] = system: MDA-MB-468 (GFP-LC3) cells; experiment: GFP-LC3 punctae (autophagosome formation) microscopy assay; settings: for mean number of punctae per cell: 10 μM
Experimental: The human GFP-LC3 expression plasmid, pEGFP-LC3 (a gift from Drs. Grazia Ambrosini and Gary K. Schwartz, MSKCC), was stably transfected into MDA-MB-468 and selected with 0.5 mg/ml G418 sulfate. Stable populations were generated and compared to parental MDA-MB-468 for Sigma1 expression and autophagic and growth inhibitory response to Sigma ligands. GFP-LC3 translocation (punctae formation) was assessed by microscopy in MDA-MB-468 (GFP-LC3) stable cell populations. For microscopy-based experiments, cells were seeded onto Lab-Tek II glass chamber slides (Nalge Nunc International). […] Images of GFP-LC3 punctae were acquired with a Zeiss Axioplan 2 Imaging widefield microscope using Axiovision LE software. Punctae were counted using the spot quantitation program in the Fluoro-Chem software package (Alpha Innotech) and confirmed in parallel by manual counting. Autophagosome formation in MDAMB-468 (GFP-LC3) cells was quantitated as the mean number of GFP-LC3 punctae per GFP positive cell.
Initially, an established immunoblot-based assay to detect microtubule associated protein light chain 3 (LC3) lipidation was used to test for the activation of autophagy. […] Since transient transfections can produce spurious GFP-LC3 aggregates, stable GFP-LC3 transfected populations of MDA-MB-468 (GFP-LC3) were generated. […]

[5] = system: MCF-7, T47D and MDA-MB-468 cells; experiment: Cell proliferation by Alamar blue reduction, breast adenocarcinoma cultures; settings: after 4 days of treatment, six drug concentrations
Description: In vitro cell proliferation was quantitated by Alamar blue reduction. The anti-proliferative effects of six drug concentrations of the indicated drugs were quantitated after 4 days of treatment.

MDA-MB-468 cells = experiment: Cell size by flow cytometry (mean FSC-H, G1 phase); settings: 10 μM, 24 hours
Experimental: FIG. 11 is a graph illustrating decrease in MDAMB468 cell size associated with the Sigma1 antagonist treatment. MDA-MB-468 cells were treated for 24 hours with DMSO (control), 10 μM IPAG (antagonist), or 10 μM PRE084 (agonist). Cell size was quantitated by flow cytometry, using a Becton Dickinson FACS Calibur flow cytometer with Cell Quest software. The mean forward scatter height (FSC-H) of the G1-phase population was determined as a measure of relative cell size. Single cells were gated away from aggregated cells using an FL2-width versus FL-2 area dot plot. Mean FSC-H±S.E. was calculated from at least 4 independent determinations. For each FSC-H determination, FACS analysis was performed on 10,000 single cells. The mean FSC-H of DMSO (control) and PRE084 treated MDA-MB-468 measured 370±6 and 372±7, respectively, whereas the mean FSC-H of IPAG treated MDA-MB-468 cells was 323±4. ** P<0.01 for IPAG compared to DMSO and IPAG compared to PRE084.
FIG. 31A is a differential interference contrast (DIC) image of MDA-MB-468 breast adenocarcinoma cells treated for ˜20 hours with DMSO (drug vehicle control), 10 μM IPAG (antagonist) or 10 μM PRE084 (agonist). A twenty-micron bar is shown in each image. Data are presented as mean±SEM. FIG. 31B is a graph illustrating the finding that IPAG diminished the mean cell size (FSC-H) of MDA-MB-468 breast tumor cells in a time-responsive manner. The mean FSC-H of 370±5 at to decreased to 323±4 after 24 hours of IPAG treatment and to 267±2 after 48 hours of treatment. Two-tailed t-tests were performed to determine statistical significance. For IPAG treatment compared to control (DMSO) and Sigma agonists (SKF and PRE084), P=0.0002 at d1 and P=0.00013 at d2. Data were generated from three to five independent determinations for each time-point. […] T-47D were treated for 24 h with 1 and 10 μM IPAG, and mean FSC-H was measured. […] For FIGS. 31B-31E, the mean FSC-H was determined for each cell cycle population (i.e., G1, S, G2/M), and data is shown for G1 phase cells. […]

[6] = system: MCF-7, T47D, DU145, PC3, HepG2 and Panc1 cells; experiment: LC3BII immunoblot in a range of tumor cell lines; settings: 10 μM, 24 hours
Experimental: FIG. 36, comprising FIGS. 36A-36C, illustrates Sigma1 antagonist associated autophagy. FIG. 36A, comprises representative images of translocation of GFP-tagged LC3 (LC3-GFP) into autophagosomes in MDA-MB-468 (MDA468) breast adenocarcinoma cells. Only antagonist-treated MDA-MB-468 cells presented LC3-GFP translocation to autophagosomes: […]. […] The images are representative of at least 80 fields for each treatment condition. FIG. 36B is an image of an immunoblot illustrating the finding that formation of GFP-LC3II the formation of GFP-LC3 positive punctae, an indicator of autophagosome formation. Protein extracts from MDA-MB-468 cells stably transfected with and expressing GFP-LC3, treated for 24 hours with 10 μM of the indicated Sigma1 ligand. FIG. 36C comprises images of immunoblots illustrating that increased levels of the microtubule associated protein light chain 3BII isoform (LC3BII) is another broadly used indicator of activated autophagy. […] Legend: MCF-7 (breast adenocarcinoma), T47D (breast adenocarcinoma), DU145 (prostate adenocarcinoma), PC3 (prostate adenocarcinoma), HepG2 (hepatocellular carcinoma), and Panc1 (pancreatic adenocarcinoma).

[7] = system: T-47D breast adenocarcinoma cells; experiment: Cell size by flow cytometry (mean FSC-H, G1 phase); settings: 10 μM, 24 hours; control 412±5
Experimental: FIG. 31A is a differential interference contrast (DIC) image of MDA-MB-468 breast adenocarcinoma cells treated for ˜20 hours with DMSO (drug vehicle control), 10 μM IPAG (antagonist) or 10 μM PRE084 (agonist). A twenty-micron bar is shown in each image. Data are presented as mean±SEM. FIG. 31B is a graph illustrating the finding that IPAG diminished the mean cell size (FSC-H) of MDA-MB-468 breast tumor cells in a time-responsive manner. The mean FSC-H of 370±5 at to decreased to 323±4 after 24 hours of IPAG treatment and to 267±2 after 48 hours of treatment. Two-tailed t-tests were performed to determine statistical significance. For IPAG treatment compared to control (DMSO) and Sigma agonists (SKF and PRE084), P=0.0002 at d1 and P=0.00013 at d2. Data were generated from three to five independent determinations for each time-point. Flow cytometry was used to measure mean cell size (mean FSC-H) of T-47D breast adenocarcinoma cells. FIG. 31C is a bar graph illustrating T-47D cells treated for 24 hours with 10 μM indicated Sigma ligand. IPAG and BD 1047 (Sigma1 antagonists) diminished cell size from a mean FSC-H of 412±5 for control (DMSO) cells versus 341±7 and 381±8 for IPAG and BD1047 treated cells, respectively. […] Data represent 5 independent determinations (*P<0.05, ***P<0.001). FIG. 31D is a bar graph illustrating how IPAG (antagonist) decreases cell size in a dose responsive manner. T-47D were treated for 24 h with 1 and 10 μM IPAG, and mean FSC-H was measured. FIG. 31E is a graph illustrating that T47D cell size decreases over time. T-47D cells were treated for a total of 48 hours with 10 μM of the indicated Sigma ligands. […] Neither Sigma1 agonist, (+)-SKF10047 and PRE084, altered cell size. […] Two-tailed t-tests were performed to determine statistical significance. For IPAG treatment compared to control (DMSO) and Sigma1 agonists (SKF and PRE084), P=0.0002 at d1 and P<0.0001 at d2. For FIGS. 31B-31E, the mean FSC-H was determined for each cell cycle population (i.e., G1, S, G2/M), and data is shown for G1 phase cells. S and G2/M phase cells responded similarly (data not shown).

Structure (SMILES) | IRE1α and BiP levels (PC3 and DU145 PCa cells) | level of ubiquitinated proteins [1] | treatment time after which salient cell death occurred (PC3 cells) | conversion of LC3 to LC3II (autophagosome formation) [2] | LC3BII levels [3] | mean number of punctae per cell ([4]; 24 hours, knockdown of Beclin1) | mean number of punctae per cell ([4]; 24 hours, without Beclin1 knockdown) | concentration at which precipitous cell death occurred ([4]; following 24 hours of treatment) | inhibition of cell proliferation [5] | mean FSC-H (relative cell size) (MDA-MB-468 cells) | LC3BII levels [6] | GFP-LC3 punctae per cell ([4]; drug concentrations up to 100 μM, 24 hours) | mean FSC-H (relative cell size) [7]
O=C(CCCN1CCC(O)(c2ccc(Cl)cc2)CC1)c1ccc(F)cc1 [haloperidol, 4-[4-(4-chlorophenyl)-4-hydroxy-1-piperidyl]-1-(4-fluorophenyl)-butan-1-one] | salient induction of IRE1α and BiP levels | increased level of ubiquinated proteins | 24 to 48 h | converted LC3 to LC3II | salient induction of LC3BII levels | 17±1 punctae per cell | 36±4 punctae per cell | 40 µM | also inhibited cell proliferation | – | – | – | –
O=C(OCCN1CCOCC1)C1(c2ccccc2)CCCCC1 [PRE-084, 2-morpholin-4-ylethyl 1-phenylcyclohexane-1-carboxylate] | – | – | – | – | – | – | – | – | – | 372±7 | did not significantly alter basal autophagy | no more than 6±2 punctae per cell | did not alter cell size
